Reference: patent publication US20120064175A1, “HSP90 Inhibitors for Treating Non-Small Cell Lung Cancer in Wild-Type EGFR and/or KRAS Patients” (Synta Pharmaceuticals Corp., priority 2010, published 2012)

Assays:
FLT3 with Hsp90 = settings: cited from earlier work
Kasumi-1 cells = settings: acute myeloid leukemia cell line that harbors a mutation in c-Kit; cited from earlier work
[1] = test system: leukemia cells that express either wild type FLT3 or FLT3-ITD mutations; settings: Yao, et al. 2003; cited from earlier work
[2] = test system: RERF-LC-AI human squamous non-small cell lung cancer cell line; experiment: Nude mouse xenograft model with RERF-LC-AI human tumor cells; assay type: in vivo; settings: RERF-LC-AI^IVP tumors, i.p., 5 days per week, 15 doses; heading only, no data given
Protocol: The human squamous non-small cell lung cancer cell line, RERF-LC-AI (RCB0444; S. Kyoizumi, et al., Cancer. Res. 45:3274-3281, 1985), was obtained from the Riken Cell Bank (Tsukuba, Ibaraki, Japan). The cell line was cultured in growth media prepared from 50% Dulbecco's Modified Eagle Medium (high glucose), 50% RPMI Media 1640, 10% fetal bovine serum (FBS), 1% 100×L-glutamine, 1% 100× penicillin-streptomycin, 1% 100× sodium pyruvate and 1% 100×MEM non-essential amino acids. FBS was obtained from American Type Culture Collection (Manassas, Va., USA) and all other reagents were obtained from Invitrogen Corp. (Carlsbad, Calif., USA). […]
The growth media was replaced every 2-3 days until the flask became 90% confluent, typically in 5-7 days. […] The supernatant was aspirated and the cell pellet was resuspended in 10 ml of growth media and the cell number determined using a hemocytometer. […]
Seven to eight week old, female Crl:CD-1-nuBR (nude) mice were obtained from Charles River Laboratories (Wilmington, Mass., USA) Animals were housed 4-5/cage in micro-isolators, with a 12 hr/12 hr light/dark cycle, acclimated for at least 1 week prior to use and fed normal laboratory chow ad libitum. […] Tumor volumes (V) were calculated by caliper measurement of the width (W), length (L) and thickness (T) of tumors using the following formula: V=0.5236×(L×W×T). […]

Row | Structure (SMILES) | Effect on the association of FLT3 with Hsp90 (FLT3 with Hsp90) | Apoptosis (Kasumi-1 cells) | Growth of leukemia cells [1] | Anti-tumor activity against human tumor cells in a nude mouse xenograft model [2]
1 | C=CCNC1=C2C[C@@H](C)C[C@H](OC)[C@H](O)[C@@H](C)/C=C(\C)[C@H](OC(N)=O)[C@@H](OC)/C=C\C=C(/C)C(=O)NC(=CC1=O)C2=O [Compound 17AAG, 17-allylamino-17-demethoxygeldanamycin] | disrupt the association of FLT3 with Hsp90 | induce apoptosis | inhibited | 
2 | CCc1cc(-c2nnc(S)n2-c2ccc(O)c3c2ccn3C(C)C)c(O)cc1O [Compound 48, 3-(2,4-DIHYDROXY-5-ETHYL- PHENYL)-4-(1-ISOPROPYL-7- HYDROXY-INDOL-4-YL)-5- MERCAPTO-[1,2,4] TRIAZOLE] |  |  |  | Displays Anti-tumor Activity
